The record followed here is patent publication US20230099441A1, “HETEROCYCLIC COMPOUND, APPLICATION THEREOF, AND COMPOSITION CONTAINING SAME” (GenEros Biopharma Ltd., priority 2019, published 2023).

The test system of assay [1] is STAT5 Y694 phosphorylation. Put plainly: Protein electrophoresis and blotting of STAT5 Y694 phosphorylation in Jurkat cells stimulated with human interferon beta. The class given is cell-based. To be noted: for Example of Effect 1: Inhibiting Ability (Protein Electrophoresis and Blotting): observed pSTAT5 bands at 10 μM and 100 μM; for Inhibiting Ratio (0% for vehicle control): 1 hour pretreatment, 20 ng/ml human interferon beta 30 minutes, pSTAT5/GAPDH. The essentials: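 Serum-free Jurkat cells pretreated with compound 1 h, then stimulated with 20 ng/ml human interferon beta for 30 min at 37° C. pSTAT5 measured by western blot with chemiluminescence, normalized to GAPDH and expressed as percent of DMSO control.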

The test system of assay [2] is STAT5 Y694 phosphorylation. Put plainly: HTRF experiment: STAT5 Y694 phosphorylation in Hela cells stimulated with human interferon beta. In kind it is cell-based. To be noted: 2 hours pretreatment, 10 nM human interferon beta 30 minutes. The method, then:
Example of Effect 3: HTRF Experiment
Human Interferon 3 (IFN-0) (GenScript, Cat #P01574), STAT5 Y694 phosphorylation detection kit (STAT5 phospho-Y694 kit) (Cisbio; Cat #64AT5PEG).
Hela cells (ATCC American Standard Culture Center, CCL-2) were cultured in a 96-well plate at a density of 3×10^4 cells/well with DMEM medium containing 5% fetal bovine serum and maintained at 37° C. in a humidified incubator with 5% carbon dioxide overnight. On the second day, the original DMEM medium in the 96-well plate was sucked dry, and an equal volume of medium containing different concentrations of compounds (the mother liquor of the compound prepared by dimethyl sulfoxide was diluted in the medium at the required concentration) was added for pretreatment for 2 hours, and then it was placed in an incubator at 37° C. Then human interferon beta with a final concentration of 10 nM was added to stimulate, and it was gently shaken to mix well and then placed in an incubator at 37° C. for 30 minutes.
The medium was removed, an appropriate volume of PBS was added to wash, and then it was sucked dry. Then 40 microliters of 1× Lysis Buffer was added to each well and it was stood for 30 minutes at room temperature (1 ml 1× lysate preparation: 740 μl ddH2O was added to 250 μl 4× lysate and 10 μl Blocking reagent and it was mixed thoroughly). After 30 minutes, the cells were repeatedly blown until the lysis solution was not viscous (avoiding blowing out bubbles) to achieve sufficient lysis.
After overnight incubation, the signals of 665 nm and 620 nm were detected in a multifunctional microplate reader. The calculation formula for the detection of STAT5 Y694 phosphorylation is: Ratio=[(signal 665 nm)/(signal 620 nm)]×10^4. Treatment with dimethyl sulfoxide alone was the baseline control (Ratiobase), and the human interferon β stimulation without addition of the compound was the STAT5 Y694 full phosphorylation activation control (Ratiostimulation), the inhibition rate of STAT5 Y694 phosphorylation of different samples was normalized: Inhibition rate=[1−(RatioExperiment−Ratiobase)/(Ratiostimulation−Ratiobase)]*100.
A general note: Time-resolved FRET reads energy transfer from a long-lived donor to a nearby acceptor.

Turning to `O=C(C(=O)N1CCC(n2c(=O)[nH]c3cccc(C(F)(F)F)c32)CC1)c1ccc(C(F)(F)F)cc1` [GEN1-160, 1-(4-(2-oxo-7-(trifluoromethyl)-2,3-dihydro-1H-benzo[d]imidazol-1-yl)piperidin-1-yl)-2-(4-(trifluoromethyl)phenyl)1,2-dione], in assay [1], the “Example of Effect 1: Inhibiting Ability (Protein Electrophoresis and Blotting)” value (shortened to “Example of Effect 1: Inhibiting Ability”) is listed as “+”. Further, the “Example of Effect 3: Inhibiting Ratio@10 μM (HTRF Experiment)” value in assay [2] is reported as 10.27%.

On to `Nc1nc2ccccc2n1C1CCN(C(=O)Cc2ccc(C(F)(F)F)cc2)CC1` [GEN1-055, 1-(4-(2-amino-1H-benzo[d]imidazol-1-yl)piperidin-1-yl)-2-(4-(trifluoromethyl)phenyl)ethanone], for which the results for the “Inhibiting Ratio (0% for vehicle control)” value in assay [1] (1 μM), in assay [1] (10 μM) and in assay [1] (100 μM) were 25.0%, 50.0% and 89.6%, respectively. The “Example of Effect 1: Inhibiting Ability” value in assay [1] was “+”. Moreover, the “Example of Effect 3: Inhibiting Ratio@10 μM (HTRF Experiment)” value in assay [2] was 16.88%.

As to `O=C(Nc1ccc(C(F)(F)F)cc1)N1CCC(n2c(=O)[nH]c3cccc(C(F)(F)F)c32)CC1` [GEN1-149, 4-(2-oxo-7-(trifluoromethyl)-2,3-dihydro-1H-benzo[d]imidazol-1-yl)-N-(4-(trifluoromethyl)phenyl)piperidin-1-carboxamide], the “Example of Effect 1: Inhibiting Ability” value in assay [1] is “+”. Besides, the “Example of Effect 3: Inhibiting Ratio@10 μM (HTRF Experiment)” value in assay [2] is 0.49%.

`O=C(Cc1ccc2nccnc2c1)N1CCC(n2c(=O)[nH]c3cccc(C(F)(F)F)c32)CC1` [GEN1-140, 1-(1-(2-(quinoxalin-6-yl)acetyl)piperidin-4-yl)-7-(trifluoromethyl)-1,3-dihydro-2H-benzo[d]imidazol-2-one]: the “Example of Effect 1: Inhibiting Ability” value in assay [1] is recorded as “+”. Moreover, the “Example of Effect 3: Inhibiting Ratio@10 μM (HTRF Experiment)” value in assay [2] is on record as 53.79%.

On to `O=C(Cc1ccc2ncccc2c1)N1CCC(n2c(=O)[nH]c3cccc(C(F)(F)F)c32)CC1` [GEN1-117, 1-(1-(2-(quinolin-6-yl)acetyl)piperidin-4-yl)-7-(trifluoromethyl)-1H-benzo[d]imidazol-2(3H)-one], for which the “Example of Effect 1: Inhibiting Ability” value in assay [1] is given as “++”. Moreover, the “Example of Effect 3: Inhibiting Ratio@10 μM (HTRF Experiment)” value in assay [2] is reported as 89.31%.

On to `O=C(Cc1ccc(Cl)cc1)N1CCC(n2c(=O)[nH]c3cccc(C(F)(F)F)c32)CC1` [GEN1-156, 1-(1-(2-(4-chlorophenyl)acetyl)piperidin-4-yl)-7-(trifluoromethyl)-1H-benzo[d]imidazol-2(3H)-one], for which the “Example of Effect 1: Inhibiting Ability” value in assay [1] was “+”. For the same compound, the “Example of Effect 3: Inhibiting Ratio@10 μM (HTRF Experiment)” value in assay [2] stood at 47.04%.

For `O=C(Cc1ccc2c(c1)OCO2)N1CCC(n2c(=O)[nH]c3cccc(C(F)(F)F)c32)CC1` [GEN1-116, 1-(1-(2-(benzo[d][1,3]dioxol-5-yl)acetyl)piperidin-4-yl)-7-(trifluoromethyl)-1,3-dihydro-2H-benzo[d]imidazol-2-one], the “Example of Effect 1: Inhibiting Ability” value in assay [1] is reported as “+”. Moreover, the “Example of Effect 3: Inhibiting Ratio@10 μM (HTRF Experiment)” value in assay [2] stood at 35.01%.

With `O=C(Cc1ccc(C(F)(F)F)cc1)N1CCC(n2c(=S)[nH]c3ccccc32)CC1` [GEN1-050, 1-(4-(2-thioxo-2,3-dihydro-1H-benzo[d]imidazol-1-yl)piperidin-1-yl)-2-(4-(trifluoromethyl)phenyl)ethanone], the “Example of Effect 1: Inhibiting Ability” value in assay [1] is “+”. Further, the “Example of Effect 3: Inhibiting Ratio@10 μM (HTRF Experiment)” value in assay [2] was 15.28%.

Turning to `CN(C)c1ccc(CC(=O)N2CCC(n3c(=O)[nH]c4cccc(C(F)(F)F)c43)CC2)cc1` [GEN1-118, 1-(1-(2-(4-(dimethylamino)phenyl)acetyl)piperidin-4-yl)-7-(trifluoromethyl)-1,3-dihydro-2H-benzo[d]imidazol-2-one], the “Example of Effect 1: Inhibiting Ability” value in assay [1] was “+”. Also, in assay [2], the “Example of Effect 3: Inhibiting Ratio@10 μM (HTRF Experiment)” value stood at 27.57%.

Take `O=C(Cc1ccc2c(c1)OCCO2)N1CCC(n2c(=O)[nH]c3cccc(C(F)(F)F)c32)CC1` [GEN1-159, 1-(1-(2-(2,3-dihydrobenzo[b][1,4]dioxin-6-yl)acetyl)piperidin-4-yl)-7-(trifluoromethyl)-1,3-dihydro-2H-benzo[d]imidazol-2-one]: the “Example of Effect 1: Inhibiting Ability” value in assay [1] is on record as “+”. Moreover, the “Example of Effect 3: Inhibiting Ratio@10 μM (HTRF Experiment)” value in assay [2] is 22.99%.

As for `COc1ccc2[nH]c(=O)n(C3CCN(C(=O)Cc4ccc(C(F)(F)F)cc4)CC3)c2c1` [GEN1-011, 6-methoxy-1-(1-(2-(4-(trifluoromethyl)phenyl)acetyl)piperidin-4-yl)-1H-benzo[d]imidazole-2 (3H)-one], the “Example of Effect 1: Inhibiting Ability” value in assay [1] is recorded as “+”. Also, in assay [2], the “Example of Effect 3: Inhibiting Ratio@10 μM (HTRF Experiment)” value stood at 20.49%.

With `O=C(Cc1ccc2ncccc2c1)N1CCC(n2c(=S)[nH]c3ccccc32)CC1` [GEN1-137, 2-(quinolin-6-yl)-1-(4-(2-thio-2,3-dihydro-1H-benzo(d)imidazol-1-yl)piperidin-1-yl)ethan-1-one], the “Example of Effect 1: Inhibiting Ability” value in assay [1] was “+”. Besides, the “Example of Effect 3: Inhibiting Ratio@10 μM (HTRF Experiment)” value in assay [2] amounted to 19.51%.

Turning to `Cc1[nH]c(=O)n(C2CCN(C(=O)Cc3ccc(C(F)(F)F)cc3)CC2)c1-c1ccccc1` [GEN1-166, 4-methyl-5-phenyl-1-(1-(2-(4-(trifluoromethyl)phenyl)acetyl)piperidin-4-yl)-1H-imidazole-2(3H)-one], the “Example of Effect 1: Inhibiting Ability” value in assay [1] is given as “+”. The “Example of Effect 3: Inhibiting Ratio@10 μM (HTRF Experiment)” value in assay [2] is on record as 15.16%.

In the case of `O=C(Cc1ccc(C(F)(F)F)cc1)N1CCC(n2c(=O)[nH]c3cccc(C(F)(F)F)c32)CC1` [GEN1-013, 7-(trifluoromethyl)-1-(1-(2-(4-(trifluoromethyl)phenyl)acetyl)piperidin-4-yl)-1H-benzo[d]imidazole-2(3H)-one], the “Inhibiting Ratio (0% for vehicle control)” value in assay [1] (1 μM) is 12.4%; in assay [1] (10 μM), 62.6%; in assay [1] (100 μM), 97.0%. Moreover, the “Example of Effect 1: Inhibiting Ability” value in assay [1] was “+”. Moreover, in assay [2], the “Example of Effect 3: Inhibiting Ratio@10 μM (HTRF Experiment)” value came to 20.29%.

Take `O=C(Cc1ccc(C(F)(F)F)cc1)N1CCC2(CC1)C(=O)Nc1ccccc12` [GEN1-167, 1′-(2-(4-(trifluoromethyl)phenyl)acetyl)spiro[indoline-3,4′-piperidine]-2-one]: in assay [1], the “Example of Effect 1: Inhibiting Ability” value is recorded as “+”. In addition, in assay [2], the “Example of Effect 3: Inhibiting Ratio@10 μM (HTRF Experiment)” value was 15.57%.

On to `O=C(C[C@H]1CC[C@@H](C(F)(F)F)CC1)N1CCC(n2c(=O)[nH]c3ccccc32)CC1` [GEN1-107, (Cis)-1-(1-(2-(4-(trifluoromethyl)cyclohexyl)acetyl)piperidin-4-yl)-1H-benzo[d]imidazol-2(3H)-one], for which the “Example of Effect 1: Inhibiting Ability” value in assay [1] is on record as “+”. Moreover, the “Example of Effect 3: Inhibiting Ratio@10 μM (HTRF Experiment)” value in assay [2] turned out to be 37.09%.

Take `CC(=O)Nc1ccccc1NC1CCN(C(=O)Cc2ccc(C(F)(F)F)cc2)CC1` [GEN1-057, N-(2-((1-(2-(4-(trifluoromethyl)phenyl)acetyl)piperidin-4-yl)amino)phenyl)acetamide]: the “Example of Effect 1: Inhibiting Ability” value in assay [1] is “++”. In assay [2], the “Example of Effect 3: Inhibiting Ratio@10 μM (HTRF Experiment)” value is reported as 66.22%.

On to `O=C1CN(C2CCN(C(=O)Cc3ccc(C(F)(F)F)cc3)CC2)c2cccc(C(F)(F)F)c2N1` [GEN1-134, 8-(trifluoromethyl)-4-(1-(2-(4-(trifluoromethyl)phenyl)acetyl)piperidin-4-yl)-3,4-dihydroquinoxaline-2(1H)-one], for which the “Example of Effect 1: Inhibiting Ability” value in assay [1] was “−”. For the same compound, the “Example of Effect 3: Inhibiting Ratio@10 μM (HTRF Experiment)” value in assay [2] came out at 3.06%.

`CC(C)(C)c1ccc(CC(=O)N2CCC(n3c(=O)[nH]c4ccccc43)CC2)cc1` [GEN1-031, 1-(1-(2-(4-(tert-butyl)phenyl)acetyl)piperidin-4-yl)-1H-benzo[d]imidazole-2(3H)-one]: the “Inhibiting Ratio (0% for vehicle control)” value in assay [1] (1 μM) stood at 19.7%; in assay [1] (10 μM), 38.1%; in assay [1] (100 μM) it was 98.7%. In addition, the “Example of Effect 1: Inhibiting Ability” value in assay [1] was “+”. For the same compound, in assay [2], the “Example of Effect 3: Inhibiting Ratio@10 μM (HTRF Experiment)” value is 0.13%.

In the case of `O=C(/N=c1\[nH]c2cccc(C(F)(F)F)c2n1C1CCN(C(=O)Cc2ccc3ncccc3c2)CC1)c1ccccc1` [GEN1-172], the “Example of Effect 1: Inhibiting Ability” value in assay [1] was “−”. For the same compound, in assay [2], the “Example of Effect 3: Inhibiting Ratio@10 μM (HTRF Experiment)” value was 13.83%.
